According to patent US11337976B2 (Plexxikon Inc., priority 2011, dated 2022):

What follows are compounds tested on A375 melanoma cells (B-Raf V600E mutation) (assay: A375 (A375_P-ERK) cell activity / cell growth inhibition assay). Details: Homo sapiens, A-375; A375 cells (text: A375_P-ERK).
Type: cell-based, human
Protocol: Compounds are assessed in a variety of cell based assays. For example human cell lines with B-RafV600E mutation (A375 melanoma, SKMEL3 melanoma, and COLO205 colon adenocarcinoma), as well as tumorigenic cell lines with wild-type B-RAF (SW620 colon adenocarcinoma) or with Ras mutations (SKMEL2 melanoma and IPC298 melanoma).
On day 1, cells are counted, then centrifuged in a conical tube for 5 minutes at 1000 rpm.
On day 2, compound at a maximum concentration of 5 mM is serially diluted 1:3 (e.g. 10 μL with 30 μL dimethyl sulfoxide) for a total of 8 point titration with DMSO as a control. A 1 μL aliquot of each dilution point and control is added to 249 μL growth media and 50 μL is added to a well containing cells, providing 10 μM compound at the maximum concentration point. The cells are incubated for 3 days at 37° C. in 5% CO2.
ATPlite is added 25 μL to each well, shake for 2 minutes, and the cells are incubated at room temperature for 10 minutes, then luminescence is read on Safire reader. The measured luminescence correlates directly with cell number, such that the reading as a function of compound concentration is used to determine the IC50 value.

| Structure (SMILES) | IC50 [µM] |
| --- | --- |
| CC(C)c1ncc(-c2cnc3[nH]cc(C(=O)c4cccc(NS(=O)(=O)N5CCCC5)c4F)c3c2)cn1 [P-0047, N-[2-fluoro-3-[5-(2-isopropylpyrimidin-5-yl)-1H-pyrrolo[2,3-b]pyridine-3-carbonyl]phenyl]pyrrolidine-1-sulfonamide] | < 1 |
| CNS(=O)(=O)Nc1ccc(F)c(C(=O)c2c[nH]c3ncc(-c4cnc(C5CC5)nc4)cc23)c1F [P-0334, [5-(2-cyclopropylpyrimidin-5-yl)-1H-pyrrolo[2,3-b]pyridin-3-yl]-[2,6-difluoro-3-(methylsulfamoylamino)phenyl]methanone] | > 1 |
| CN1CCN(c2ncc(-c3cnc4[nH]cc(C(=O)c5c(F)ccc(NS(=O)(=O)N6CCCC6)c5F)c4c3)cn2)CC1 [P-0260, N-[2,4-difluoro-3-[5-[2-(4-methylpiperazin-1-yl)pyrimidin-5-yl]-1H-pyrrolo[2,3-b]pyridine-3-carbonyl]phenyl]pyrrolidine-1-sulfonamide] | < 1 |
| O=C(c1c(F)ccc(NS(=O)(=O)N2CCCC2)c1F)c1c[nH]c2ncc(-c3ccnc(N4CCOCC4)c3)cc12 [P-0284, N-[2,4-difluoro-3-[5-(2-morpholino-4-pyridyl)-1H-pyrrolo[2,3-b]pyridine-3-carbonyl]phenyl]pyrrolidine-1-sulfonamide] | < 1 |
| CN(C)S(=O)(=O)Nc1cccc(C(=O)c2c[nH]c3ncc(-c4ccc(C5CC5)nc4)cc23)c1F [P-0113, 5-(6-cyclopropyl-3-pyridyl)-3-[3-(dimethylsulfamoylamino)-2-fluoro-benzoyl]-1H-pyrrolo[2,3-b]pyridine] | < 1 |
| N#CC1(c2ccc(-c3cnc4[nH]cc(C(=O)c5cccc(NS(=O)(=O)N6CCCC6)c5F)c4c3)cc2)CC1 [P-0050, N-[3-[5-[4-(1-cyanocyclopropyl)phenyl]-1H-pyrrolo[2,3-b]pyridine-3-carbonyl]-2-fluoro-phenyl]pyrrolidine-1-sulfonamide] | < 1 |
| O=C(c1c(F)ccc(NS(=O)(=O)N2CCCC2)c1F)c1c[nH]c2ncc(-c3cnc(N4CCC(O)CC4)nc3)cc12 [P-0262, N-[2,4-difluoro-3-[5-[2-(4-hydroxy-1-piperidyl)pyrimidin-5-yl]-1H-pyrrolo[2,3-b]pyridine-3-carbonyl]phenyl]pyrrolidine-1-sulfonamide] | < 1 |
| O=C(c1cccc(NS(=O)(=O)N2CC[C@@H](F)C2)c1F)c1c[nH]c2ncc(-c3cnc(C4CC4)nc3)cc12 [P-0327, (3R)—N-[3-[5-(2-cyclopropylpyrimidin-5-yl)-1H-pyrrolo[2,3-b]pyridine-3-carbonyl]-2-fluoro-phenyl]-3-fluoro-pyrrolidine-1-sulfonamide] | < 1 |
| CN(C)S(=O)(=O)Nc1cccc(C(=O)c2c[nH]c3ncc(-c4ccc(F)cc4)cc23)c1F [P-0035] | < 1 |
| COc1ncc(-c2cnc3[nH]cc(C(=O)c4cccc(NS(=O)(=O)N(C)CC(C)C)c4F)c3c2)cn1 [P-0072, 3-[2-fluoro-3-[[isobutyl(methyl)sulfamoyl]amino]benzoyl]-5-(2-methoxypyrimidin-5-yl)-1H-pyrrolo[2,3-b]pyridine] | < 1 |
| CCN(C)S(=O)(=O)Nc1ccc(F)c(C(=O)c2c[nH]c3ncc(-c4cnc(N5CCNCC5)nc4)cc23)c1F [P-0268, 3-[3-[[ethyl(methyl)sulfamoyl]amino]-2,6-difluoro-benzoyl]-5-(2-piperazin-1-ylpyrimidin-5-yl)-1H-pyrrolo[2,3-b]pyridine] | < 1 |
| O=C(c1c(F)ccc(NS(=O)(=O)N2CCCC2)c1F)c1c[nH]c2ncc(-c3cnc(C4CC4)nc3)cc12 [P-0241, N-[3-[5-(2-cyclopropylpyrimidin-5-yl)-1H-pyrrolo[2,3-b]pyridine-3-carbonyl]-2,4-difluoro-phenyl]pyrrolidine-1-sulfonamide] | < 1 |
| CN(C)S(=O)(=O)Nc1cccc(C(=O)c2c[nH]c3ncc(-c4cnc(C5CC5)nc4)cc23)c1F [P-0052, 5-(2-cyclopropylpyrimidin-5-yl)-3-[3-(dimethylsulfamoylamino)-2-fluoro-benzoyl]-1H-pyrrolo[2,3-b]pyridine] | < 1 |
| O=C(c1cccc(NS(=O)(=O)N2CCCC2)c1F)c1c[nH]c2ncc(-c3ccc(C(F)(F)F)nc3)cc12 [P-0095, N-[2-fluoro-3-[5-[6-(trifluoromethyl)-3-pyridyl]-1H-pyrrolo[2,3-b]pyridine-3-carbonyl]phenyl]pyrrolidine-1-sulfonamide] | < 1 |
| COc1ncc(-c2cnc3[nH]cc(C(=O)c4cccc(NS(=O)(=O)N5CCCC5)c4F)c3c2)c(OC)n1 [P-0044, N-[3-[5-(2,4-dimethoxypyrimidin-5-yl)-1H-pyrrolo[2,3-b]pyridine-3-carbonyl]-2-fluoro-phenyl]pyrrolidine-1-sulfonamide] | < 1 |
| CCOc1ncc(-c2cnc3[nH]cc(C(=O)c4c(F)ccc(NS(=O)(=O)N(C)CC)c4F)c3c2)cn1 [P-0256, 5-(2-ethoxypyrimidin-5-yl)-3-[3-[[ethyl(methyl)sulfamoyl]amino]-2,6-difluoro-benzoyl]-1H-pyrrolo[2,3-b]pyridine] | < 1 |

| Structure (SMILES) | IC50 [µM] |
| --- | --- |
| O=C(c1cccc(NS(=O)(=O)N2CCCC2)c1F)c1c[nH]c2ncc(-c3ccc(C4(C(=O)O)CC4)cc3)cc12 [P-0243, 1-[4-[3-[2-fluoro-3-(pyrrolidin-1-ylsulfonylamino)benzoyl]-1H-pyrrolo[2,3-b]pyridin-5-yl]phenyl]cyclopropanecarboxylic acid] | > 1 |
| COCCN(C)S(=O)(=O)Nc1cccc(C(=O)c2c[nH]c3ncc(-c4ccc(C5(C#N)CC5)cc4)cc23)c1F [P-0080, 5-[4-(1-cyanocyclopropyl)phenyl]-3-[2-fluoro-3-[[2-methoxyethyl(methyl)sulfamoyl]amino]benzoyl]-1H-pyrrolo[2,3-b]pyridine] | < 1 |
| CN(CC(F)(F)F)S(=O)(=O)Nc1ccc(F)c(C(=O)c2c[nH]c3ncc(-c4cnc(C5CC5)nc4)cc23)c1F [P-0340, 5-(2-cyclopropylpyrimidin-5-yl)-3-[2,6-difluoro-3-[[methyl(2,2,2-trifluoroethyl)sulfamoyl]amino]benzoyl]-1H-pyrrolo[2,3-b]pyridine] | < 1 |
| COCCS(=O)(=O)Nc1cccc(C(=O)c2c[nH]c3ncc(-c4cnc(OC)nc4)cc23)c1F [P-0065, N-[2-fluoro-3-[5-(2-methoxypyrimidin-5-yl)-1H-pyrrolo[2,3-b]pyridine-3-carbonyl]phenyl]-2-methoxy-ethane sulfonamide] | < 1 |
| CN(CC1CC1)S(=O)(=O)Nc1cccc(C(=O)c2c[nH]c3ncc(-c4ccc(C5CC5)nc4)cc23)c1F [P-0115, 3-[3-[[cyclopropylmethyl(methyl)sulfamoyl]amino]-2-fluoro-benzoyl]-5-(6-cyclopropyl-3-pyridyl)-1H-pyrrolo[2,3-b]pyridine] | < 1 |
| CCN(C)S(=O)(=O)Nc1ccc(F)c(C(=O)c2c[nH]c3ncc(-c4cnc(N(C)C)nc4)cc23)c1F [P-0292, 5-[2-(dimethylamino)pyrimidin-5-yl]-3-[3-[[ethyl(methyl)sulfamoyl]amino]-2,6-difluoro-benzoyl]-1H-pyrrolo[2,3-b]pyridine] | < 1 |
| CCC(C)S(=O)(=O)Nc1cccc(C(=O)c2c[nH]c3ncc(-c4cnc(OC)nc4)cc23)c1F (stereo not shown) [P-0224, N-[2-fluoro-3-[5-(2-methoxypyrimidin-5-yl)-1H-pyrrolo[2,3-b]pyridine-3-carbonyl]phenyl]butane-2-sulfonamide] | < 1 |
| COc1cc(-c2cnc3[nH]cc(C(=O)c4cccc(NS(=O)(=O)N5CCCC5)c4F)c3c2)ccc1C#N [P-0049, N-[3-[5-(4-cyano-3-methoxy-phenyl)-1H-pyrrolo[2,3-b]pyridine-3-carbonyl]-2-fluoro-phenyl]pyrrolidine-1-sulfonamide] | < 1 |
| CN1CCN(c2cc(-c3cnc4[nH]cc(C(=O)c5cccc(NS(=O)(=O)N6CCCC6)c5F)c4c3)ncn2)CC1 [P-0322, N-[2-fluoro-3-[5-[6-(4-methylpiperazin-1-yl)pyrimidin-4-yl]-1H-pyrrolo[2,3-b]pyridine-3-carbonyl]phenyl]pyrrolidine-1-sulfonamide] | < 1 |
| CCN(C)S(=O)(=O)Nc1cccc(C(=O)c2c[nH]c3ncc(-c4ccc(C(F)(F)F)nc4)cc23)c1F [P-0059, 3-[3-[[ethyl(methyl)sulfamoyl]amino]-2-fluoro-benzoyl]-5-[6-(trifluoromethyl)-3-pyridyl]-1H-pyrrolo[2,3-b]pyridine] | < 1 |
| CCN(C)S(=O)(=O)Nc1ccc(F)c(C(=O)c2c[nH]c3ncc(-c4ccc(C5(O)CC5)cc4)cc23)c1F [P-0314, 3-[3-[[ethyl(methyl)sulfamoyl]amino]-2,6-difluoro-benzoyl]-5-[4-(1-hydroxycyclopropyl)phenyl]-1H-pyrrolo[2,3-b]pyridine] | < 1 |
| COCCN(C)S(=O)(=O)Nc1cccc(C(=O)c2c[nH]c3ncc(-c4cnc(NC5CC5)nc4)cc23)c1F [P-0081, 5-[2-(cyclopropylamino)pyrimidin-5-yl]-3-[2-fluoro-3-[[2-methoxyethyl(methyl)sulfamoyl]amino]benzoyl]-1H-pyrrolo[2,3-b]pyridine] | < 1 |
| COc1ncc(-c2cnc3[nH]cc(C(=O)c4cccc(NS(=O)(=O)N(C)C5CC5)c4F)c3c2)cn1 [P-0025] | < 1 |
| CCN(C)S(=O)(=O)Nc1ccc(F)c(C(=O)c2c[nH]c3ncc(-c4cnc(N5CCC(O)CC5)nc4)cc23)c1F [P-0275] | < 1 |
| CCC(C)S(=O)(=O)Nc1cccc(C(=O)c2c[nH]c3ncc(-c4cnc(C)nc4)cc23)c1F (stereo not shown) [P-0231, N-[2-fluoro-3-[5-(2-methylpyrimidin-5-yl)-1H-pyrrolo[2,3-b]pyridine-3-carbonyl]phenyl]butane-2-sulfonamide] | < 1 |
